Laboratory results taken from patent US11518760B2 (Liverpool School of Tropical Medicine, priority 2017, dated 2022).

Columns and labels:
[1] = tested on: Wolbachia in adult male Onchocerca ochengi; test: Adult Onchocerca ochengi mouse model, Wolbachia wsp qPCR; type: in vivo; settings: CB.17(BALB/c) SCID mice implanted with male O. ochengi, oral
Excerpt: Viable male Onchocerca ochengi were aseptically isolated from naturally parasitized cattle. Between 10-11 male Onchocerca were surgically implanted into the peritoneal cavity of CB.17(BALB/c) SCID mice under anaesthesia. […] 38 Days after O. ochengi surgical implantation, mice were necropsied to recover the live worms. Genomic DNA was extracted from individual adult worms (10/group) and quantification of the O. ochengi-specific Wolbachia surface protein (wsp) performed by quantitative PCR. Data in Table 6 is expressed as a reduction in Wolbachia load in comparison to the vehicle control group.

[2] = tested on: Wolbachia in Brugia malayi larvae; test: Larval Brugia malayi mouse model, Wolbachia wsp qPCR; type: in vivo; settings: BALB/c IL4Rα−/− mice, oral, larvae recovered 14 days post-infection
Excerpt: In a larval Brugia malayi mouse model treatment groups (BALB/c IL4Rα−/− mice, 6-8 week old) received compounds by oral delivery for 7 to 14 days commencing on the day of intraperitoneal infection with Brugia malayi third-stage larvae. At 14 days post-infection, larvae were recovered from the peritoneal cavity, counted, and length measured. Genomic DNA was extracted from individual worms (10/group) and quantification of the Wolbachia surface protein (wBm-wsp) gene copy numbers performed by quantitative PCR.
Treatment dosage unit is mg/kg (MK) and duration stated in days (d). Abbreviations: DOX (doxycycline), bid (twice daily), Ms (mesylate). Data in Table 4 are expressed as a reduction in Wolbachia load in comparison to the vehicle control group.

[3] = tested on: Wolbachia of the target parasite, Brugia malayi; test: In vitro microfilariae (Mf) Brugia malayi screen, wsp/gst qPCR; type: cell-based; settings: B. malayi Mf, 6 days
Description: An in vitro microfilariae (Mf) assay was used to screen against Wolbachia of the target parasite, Brugia malayi. The Mf were obtained by peritoneal lavage of gerbils (Meriones unguiculatus) harbouring a patent infection of Brugia malayi as described previously (Griffiths et al., 2010, Lab Animal).
Mf were purified using a PD-10 desalting column (Fisher) followed by centrifugation (1200 rpm for 5 minutes at room temperature) then re-suspended in filter-sterilised culture medium consisting of RPMI supplemented with heat-inactivated Foetal Calf Serum (HI-FCS), 1% Penicillin-Streptomycin and 1% Amphotericin B.
After determining the concentration of Mf, the stock solution was diluted in culture medium to ensure a final concentration of 8000 Mf/well of a 96 well plate (100 μl per well). Compounds to be tested (10 mM stock in 100% DMSO) were diluted to appropriate working concentrations in culture medium and 100 μl was added to the appropriate wells of the 96 well plate containing the Mf. Five replicates were used for each compound and each plate contained doxycycline (5 μM) and vehicle (DMSO) controls. The plates were incubated at 37° C., 5% CO2, for 6 days.
On day 6, a visual assessment of motility was performed and wells scored from 0 to 4 (where 0=no movement and 4=highly motile) in order to assess whether there were any direct effects against the Mf. To perform the anti-Wolbachia readout, DNA was extracted from each individual well using the QIAmp DNA Mini Kit (Qiagen) ‘DNA Purification from Tissues’ protocol.
The number of Wolbachia present in Mf was assessed by quantification of the Wolbachia surface protein (wsp) gene copy number and normalised to the nematode glutathione S-transferase (gst) gene by qPCR based on methods described by McGarry et al., 2004, Mol Biochem Parasitol. DNA samples were amplified in duplicate in the following 20 μl reactions containing 1× QuantiTect SYBR Green PCR master mix (Qiagen): for wsp, 0.3 μM each of forward ([…]) and reverse ([…]) primer, 3 mM MgCl2 and 2 μl of DNA. For gst, 0.35 μM of forward ([…]) and reverse primer (ATCACGGACGCCTTCACAG), 3.5 mM MgCl2 and 1 μl of DNA. qPCR was performed using the Bio-Rad CFX384 C1000 thermal cycler (Bio-Rad laboratories LTD) with a denaturation step of 95° C. for 15 min then 40 cycles at 95° C. for 15 s, 57° C. (gst) or 60° C. (wsp) for 30 s, and 72° C. for 30 s. Quantification was determined by Bio-Rad CFX manager software by comparing the DNA samples to that of a standard curve generated from serial dilution of plasmid DNA of the appropriate gene. Data in Table 3 are expressed as a reduction in Wolbachia load in comparison to the vehicle control group and normalized by positive control (doxycycline at 5 μM).

[4] = tested on: Brugia malayi microfilariae; test: Adult Brugia malayi mouse model, microfilaria production; type: in vivo; settings: Table 5B
Excerpt: (§1) In an adult Brugia malayi mouse model treatment groups (BALB/c CCR3−/− mice, 6-8 week old) received compounds by oral delivery for 7-28 days beginning at 6-10 weeks post-infection intraperitoneal with Brugia malayi third-stage larvae. Following treatment, at 12 weeks past-infection, adult worms and released microfilariae were recovered from the peritoneal cavity, counted and staged for sex. Genomic DNA was extracted from individual adult worms (10/group) and quantification of the Wolbachia surface protein (wBm-wsp) performed by quantitative PCR.
(§2) Table 5B provides a comparison of two stereoisomers in the adult Brugia malayi mouse model above at a range of doses and durations of treatment. Data in Table 5B are expressed as a reduction in Wolbachia load in comparison to the vehicle control group.

[5] = tested on: Wolbachia in adult Brugia malayi; test: Adult Brugia malayi mouse model, Wolbachia wsp qPCR; type: in vivo
Excerpt: as §1
Treatment dosage unit is mg/kg (MK) and duration stated in days (d). Abbreviations: MIN (minocycline), bid (twice daily), Ms (mesylate). Data in Table 5A are expressed as a reduction in Wolbachia load in comparison to the vehicle control group.
as §2

[6] = concentration stands in the drawing (not visible)
[7] = dose/duration stands in the drawing (not visible)
[8] = two stereoisomers at a range of doses and durations, dose/duration stands in the drawing (not visible)
[9] = Table 5B, two stereoisomers at a range of doses and durations, dose/duration stands in the drawing (not visible)

C[C@H]1c2cccc(O)c2C(=O)C2=C(O)[C@]3(O)C(=O)C(C(N)=O)=C(O)[C@@H](N(C)C)[C@@H]3[C@@H](O)[C@@H]21 [DOX, doxycycline, reference compound]
% Wolbachia reduction cf median Vehicle ([1]; 25 MK bid + 28 d): 98.7%
% Wolbachia reduction cf median Vehicle ([2]; 25 MK bid + 14 d): 99.05%
% Reduction level normalised to DOX (5 μm) ([3]; 500 nM): 92.9%
% Wolbachia reduction cf. DMSO ([3]; 500 nM): 80.0%
% Reduction level normalised to DOX (5 μm) ([3]; 5 μM): 100.0%
% Wolbachia reduction cf. DMSO ([3]; 5 μM): 89.6%

CN(C)c1ccc(O)c2c1C[C@H]1C[C@H]3[C@H](N(C)C)C(O)=C(C(N)=O)C(=O)[C@@]3(O)C(O)=C1C2=O [MIN, minocycline, reference compound]
% Microfilaria (Mf) production reduction cf median Vehicle ([4]; BALB/c CCR3−/− mice, oral, 25 MK bid + 28 d treatment + 14 d wash-out): 100%
% Wolbachia reduction cf median Vehicle ([5]; Table 5A, BALB/c CCR3−/− mice, oral, 25 MK bid + 28 d, worms recovered 12 weeks post-infection): 83.6%
% Wolbachia reduction cf median Vehicle ([5]; Table 5B, BALB/c CCR3−/− mice, oral, 25 MK bid + 28 d treatment + 14 d wash-out): 98.2%

CC1COCCN1c1nc(NCc2cccnc2C(F)(F)F)c2cccnc2n1 (centres unmarked) [drawing 684]
% Reduction level normalised to DOX (5 μm) [3, 6]: 99.8%
% Wolbachia reduction cf. DMSO [3, 6]: 89.4%

FC1CCN(c2nc(NCc3cccnc3C(F)(F)F)c3cccnc3n2)CC1 [drawing 685]
% Reduction level normalised to DOX (5 μm) [3, 6]: 97.4%
% Wolbachia reduction cf. DMSO [3, 6]: 87.3%

FC1(F)CCN(c2nc(NCc3cccnc3C(F)(F)F)c3cccnc3n2)CC1 [drawing 686]
% Reduction level normalised to DOX (5 μm) [3, 6]: 98.2%
% Wolbachia reduction cf. DMSO [3, 6]: 88.0%

FC(F)(F)c1ncccc1CNc1nc(N2CCC(Cl)CC2)nc2ncccc12 [drawing 687]
% Reduction level normalised to DOX (5 μm) [3, 6]: 92.9%
% Wolbachia reduction cf. DMSO [3, 6]: 83.3%

CC(C)N(C)c1nc(NCc2cccnc2C(F)(F)F)c2cccnc2n1 [drawing 688]
% Wolbachia reduction cf median Vehicle [2, 7]: 99.99%

CC1COCCN1c1nc(NCc2cccnc2C(F)(F)F)c2cccnc2n1 (centres unmarked) [drawing 689]
% Wolbachia reduction cf median Vehicle [2, 7]: 99.91%

FC1(F)CCN(c2nc(NCc3cccnc3C(F)(F)F)c3cccnc3n2)CC1 [drawing 690]
% Wolbachia reduction cf median Vehicle [2, 7]: 99.84%

C[C@H]1COCCN1c1nc(NCc2cccnc2C(F)(F)F)c2cccnc2n1 [drawing 695]
% Microfilaria (Mf) production reduction cf median Vehicle [4, 8]: 100%
% Wolbachia reduction cf median Vehicle [5, 9]: 99.7%

C[C@H]1COCCN1c1nc(NCc2cccnc2C(F)(F)F)c2cccnc2n1 [drawing 696]
% Microfilaria (Mf) production reduction cf median Vehicle [4, 8]: 100%
% Wolbachia reduction cf median Vehicle [5, 9]: 99.9%

C[C@H]1COCCN1c1nc(NCc2cccnc2C(F)(F)F)c2cccnc2n1 [drawing 697]
% Microfilaria (Mf) production reduction cf median Vehicle [4, 8]: 100%
% Wolbachia reduction cf median Vehicle [5, 9]: 97.8%

C[C@@H]1COCCN1c1nc(NCc2cccnc2C(F)(F)F)c2cccnc2n1 [drawing 698]
% Microfilaria (Mf) production reduction cf median Vehicle [4, 8]: 100%
% Wolbachia reduction cf median Vehicle [5, 9]: 99.7%

C[C@@H]1COCCN1c1nc(NCc2cccnc2C(F)(F)F)c2cccnc2n1 [drawing 699]
% Microfilaria (Mf) production reduction cf median Vehicle [4, 8]: 100%
% Wolbachia reduction cf median Vehicle [5, 9]: 99.6%

C[C@@H]1COCCN1c1nc(NCc2cccnc2C(F)(F)F)c2cccnc2n1 [drawing 700]
% Microfilaria (Mf) production reduction cf median Vehicle [4, 8]: 100%
% Wolbachia reduction cf median Vehicle [5, 9]: 86.8%

C[C@@H]1COCCN1c1nc(NCc2cccnc2C(F)(F)F)c2cccnc2n1 [drawing 701]
% Microfilaria (Mf) production reduction cf median Vehicle [4, 8]: 91.4%
% Wolbachia reduction cf median Vehicle [5, 9]: 82.2%

C[C@H]1COCCN1c1nc(NCc2cccnc2C(F)(F)F)c2cccnc2n1 [drawing 702]
% Wolbachia reduction cf median Vehicle [1, 7]: 96.2%
